According to patent US20250091994A1, “RAS/RAF BINDING INHIBITOR COMPOUND” (NATIONAL UNIVERSITY CORPORATION KOBE UNIVERSITY, priority 2021, published 2025):
Where two headings read alike, the source gives them in different places. Values belong to the compound of their own block, whether it stands above or below them.

Columns and labels:
[1] = molecular target: GTPγS-bound human HRasG12V / human c-Raf-1 Ras binding domain (RBD) (Homo sapiens (Human), UniProt P01112, G12V); test: Ras-Raf binding inhibition ELISA
GTPγS-bound human HRasG12V / human c-Raf-1 Ras binding domain (RBD), sequence (P01112 whole entry G12V, the tested form may be a part): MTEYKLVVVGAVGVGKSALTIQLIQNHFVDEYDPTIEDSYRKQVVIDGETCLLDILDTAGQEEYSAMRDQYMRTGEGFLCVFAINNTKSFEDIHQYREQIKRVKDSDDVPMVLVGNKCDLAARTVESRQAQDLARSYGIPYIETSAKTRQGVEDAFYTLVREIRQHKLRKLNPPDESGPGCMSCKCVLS
Protocol: The in vitro Ras-Raf binding inhibitory activity of the compound of the present invention was evaluated by an ELISA method (Enzyme-Linked ImmunoSorbent Assay) described below.
Ras and Raf used upon the evaluation were purified and activated by the following method.
Using a pGEX6P-1 vector (GE Healthcare), human HRasG12V (full length, 1-189 amino acid residues) and human c-Raf-1 Ras binding domain (RBD) (50-131 amino acid residues) were each allowed to express as a fusion body with glutathione S-transferase (GST) in E. coli.
GST-HRasG12V-expressing cells were subjected to ultrasonication in a buffer {50 mM Tris-HCl pH 7.4, 150 mM NaCl, 5 mM MgCl2, 1 mM ethylenediaminetetraacetic acid (EDTA), 1 mM dithiothreitol (DTT), 10% glycerol, and 1% Triton-X100}, and were then centrifuged at 100,000×g for 30 minutes, so as to collect the supernatant as a Ras protein fraction. HRasG12V in the supernatant was immobilized on a glutathione-agarose resin, and GST was then cleaved with PreScission Protease (GE Healthcare) for purification. The obtained HRasG12V was mixed with guanosine 5′-O-[gamma-thio]triphosphate trisodium salt (GTPTS) of 1000 times higher concentration at 30° C. for 1 hour, and thereafter, 20 mM MgCl2 (final concentration) was added to stop the reaction and collect the GTPgS-loaded HRasG12V as a product.
On the other hand, GST-c-Raf-1 RBD-expressing cells were subjected to ultrasonication in the same buffer as described above, and were then centrifuged at 100,000×g for 30 minutes, so as to collected the supernatant as a GST-c-Raf-1 RBD protein fraction.
The in vitro Ras-Raf binding inhibitory activity of the compound of the present invention was evaluated by an ELISA method described below.
GST-c-Raf-1 RBD diluted with a Ras-Raf binding buffer (50 mM Tris-HCl pH7.4, 150 mM NaCl, 5 mM MgCl2, 1 mM EDTA, and 1% Triton-X100) was added to each well of a glutathione-coated 96-well plate (Thermo Fisher Scientific.), and was incubated at 30° C. for 1 hour, to immobilize Raf on the well. The unbound free Raf was eliminated by washing the well with the Ras-Raf binding buffer three times. Subsequently, GTPTS-bound HRasG12V diluted with the Ras-Raf binding buffer and each compound solution (final DMSO concentration: 10%) were applied to each well, and the resulting mixture was then incubated at 30° C. for 1 hour, so that Ras and Raf were allowed to bind to each other. Thereafter, the plate was washed with the Ras-Raf binding buffer twice, and was then subjected to a blocking treatment at room temperature for 20 minutes, using TBS-Tween {10 mM Tris-HCl pH 7.4, 150 mM NaCl, and 0.05% (w/v) Tween-20}-5% (w/v) bovine serum albumin (BSA). After that, an anti-HRas antibody (C-20, Santa Cruz) or an anti-HRas antibody (259, Santa Cruz), which had been 1000 times diluted with TBS-Tween-5% BSA, was added to the reaction mixture, and incubated at room temperature for 1 hours. After the treatment with the primary antibody, the plate was washed with TBS-Tween-5% BSA three times, and a horseradish peroxidase-labeled secondary antibody against rabbit immunoglobulin G (GE Healthcare) of 1000 times diluted with TBS-Tween-5% BSA, was added to the plate, followed by incubation at room temperature for 1 hour. After the treatment with the secondary antibody, the plate was washed with TBS-Tween-5% BSA three times, and a substrate solution (TMB) was then added to the plate, followed by incubation at room temperature for 15 minutes for coloration. Finally, 2 M H2SO4 was added to stop color development (coloration reaction kit: Nacalai Tesque). The absorbance at 450 nm (OD450) was measured, so that the color intensity was quantified. Inhibition by the test compound was determined according to the following equation: […]
IC50 (*) in which the anti-HRas antibody (259, Santa Cruz) was used

[2] = system: acute lymphoblastic leukemia cells CCRF-CEM (K-RasG12D); test: Cell growth inhibition, suspension cells CCRF-CEM; assay type: cell-based; conditions: Homo sapiens, 72 hours; for inhibition at 1 µM: read-out: CCRF-CEM (KRasG12D) % inhibition at 1 μM; for inhibition at 10 µM: read-out: CCRF-CEM (KRasG12D) % inhibition at 10 μM (**); for inhibition at 3.2 µM: read-out: CCRF-CEM (KRasG12D) % inhibition at 3.2 μM (***)
Protocol: (§1) The cell growth inhibitory activity of the compound of the present invention on human culture cells having active-type mutation in Ras was evaluated by the below-mentioned method using suspension cancer cells {acute lymphoblastic leukemia cells CCRF-CEM (K-RasG12D), promyelocytic leukemia cells HL60 (N-RasQ61L), acute lymphoblastic leukemia cells MOLT4 (N-RasG12C), and small cell lung cancer cells SHP77 (K-RasG12V)} and adherent cancer cells {large bowel cancer cells SW480 (K-RasG12V) and large bowel cancer cell SW620 (K-RasG12V)}.
(§2) (Case of suspension cells) The cells suspended in a medium containing 0.5% (v/v) fetal bovine serum (FBS) and each compound solution (final DMSO concentration: 1%) were seeded on a 96-well plate (2 to 4×10^4 cells/well), and the resulting mixture was then cultured at 37° C. in the presence of 5% CO2 for 72 hours.
(§3) Thereafter, the number of viable cells was measured using Cell Counting Reagent (Nacalai Tesque) in accordance with the manufacturer's instructions. Inhibition by the test compound was determined according to the following equation: […]

[3] = system: promyelocytic leukemia cells HL60 (N-RasQ61L); test: Cell growth inhibition, suspension cells HL60; assay type: cell-based; conditions: Homo sapiens, HL-60, 72 hours; for inhibition at 10 µM: read-out: HL-60 (NRasQ61L) % inhibition at 10 μM (***); for inhibition at 1 µM: read-out: HL-60 (NRasQ61L) % inhibition at 1 μM; for inhibition at 3.2 µM: read-out: HL-60 (NRasQ61L) % inhibition at 3.2 μM (****)
Protocol: as §1, §2, §3

[4] = system: large bowel cancer cell SW620 (K-RasG12V); test: Cell growth inhibition, adherent cells SW620; assay type: cell-based; conditions: Homo sapiens, SW-620; 3.2 μM (***), 72 hours; read-out: SW620 (KRasG12V) % inhibition at 3.2 μM (***)
Protocol: as §1
(Case of adherent cells) The cells suspended in a medium containing 10% FBS (1 to 2×10^4 cells/well) were seeded on a 96-well plate, and were then cultured at 37° C. in the presence of […]. Thereafter, the medium was exchanged with a medium containing […], to which each compound solution (final DMSO concentration: […]) had been added, and the cells were then cultured at 37° C. in the presence of […] for 72 hours.
as §3

[5] = anti-HRas antibody C-20, read-out: ELISA IC50 (μM): 1st Ab_C-20
[6] = anti-HRas antibody 259 (*), read-out: ELISA IC50 (μM): 1st Ab_259 (*)

- IC50 [1, 5]: 3.1 µM
Structure (SMILES): CC(=O)N1/C(=C\c2ccc3cc(CO)ccc3n2)C(=O)c2ccccc21 [Example 33, (Z)-1-acetyl-2-((6-(hydroxymeth-yl)quinolin-2-yl)-methylene)indolin-3-one]
- inhibition at 1 µM [2]: 94%

- IC50 [1, 5]: 2.6 µM
Structure (SMILES): CC(=O)N1/C(=C\c2ccc3cc(CN4CCOCC4)ccc3n2)C(=O)c2ccccc21 [Example 35, (Z)-1-acetyl-2-((6-(morpholino-methyl)quinolin-2-yl)methylene)-indolin-3-one]
- inhibition at 1 µM [2]: 40%

Structure (SMILES): CC(=O)N1/C(=C/c2nc(C(=O)N3CCOCC3)cs2)C(=O)c2ccccc21 [Example 55, (E)-1-acetyl-2-((4-(morpholine-4-carbonyl)thiazol-2-yl)methylene)-indolin-3-one]
- inhibition at 10 µM [2]: 78%
- inhibition at 10 µM [3]: 96%

- IC50 [1, 5]: 6 µM
Structure (SMILES): CC(=O)N1/C(=C\c2ccc3cc(C(=O)N4CCS(=O)(=O)CC4)ccc3n2)C(=O)c2ccccc21 [Example 60, (Z)-1-acetyl-2-((6-(1,1-dioxido-thiomorpholine-4-carbonyl)quinolin-2-yl)methylene)-indolin-3-one]
- inhibition at 10 µM [2]: 99%

- IC50 [1, 5]: 2.7 µM
Structure (SMILES): CC(=O)N1/C(=C\c2ccc(OS(C)(=O)=O)cn2)C(=O)c2ccccc21 [Example 61, (Z)-6-((1-acetyl-3-oxoindolin-2-ylidene)methyl)-pyridin-3-yl methanesulfonate]
- inhibition at 1 µM [2]: 35%

- IC50 [1, 5]: 2.4 µM
Structure (SMILES): CC(=O)N1/C(=C\c2ccc3cc(CN(C)C4CCOCC4)ccc3n2)C(=O)c2ccccc21 [Example 71, (Z)-1-acetyl-2-((6-((methyl(tetra-hydro-2H-pyran-4-yl)amino)meth-yl)quinolin-2-yl)-methylene)indolin-3-one]
- inhibition at 10 µM [2]: 82%
- inhibition at 1 µM [3]: 41%

- IC50 [1, 5]: 1.7 µM
Structure (SMILES): CC(=O)N1/C(=C\c2ccc3cc(CN4CCS(=O)(=O)CC4)ccc3n2)C(=O)c2ccccc21 [Example 107, (Z)-1-acetyl-2-((6-((1,1-dioxido-thiomorpholino)-methyl)quinolin-2-yl)methylene)-indolin-3-one]
- inhibition at 10 µM [2]: 81%
- inhibition at 10 µM [3]: 82%

- IC50 [1, 5]: 11 µM
Structure (SMILES): CC(=O)N1/C(=C\c2ccc3cc(C(=O)N4CCC(N5CCOCC5)CC4)ccc3n2)C(=O)c2ccccc21 [Example 115, (Z)-1-acetyl-2-((6-(4-morpholino-piperidine-1-carbonyl)quinolin-2-yl)methylene)-indolin-3-one]
- inhibition at 10 µM [2]: 98%

Structure (SMILES): COCCN1CCN(C(=O)c2ccc3nc(/C=C4/C(=O)c5ccccc5N4C(C)=O)ccc3c2)CC1 [Example 116, (Z)-1-acetyl-2-((6-(4-(2-methoxy-ethyl)piperazine-1-carbonyl)quinolin-2-yl)methylene)-indolin-3-one]
- inhibition at 10 µM [2]: 98%

- IC50 [1, 6]: 1.2 µM
Structure (SMILES): CC(=O)N1/C(=C\c2nc3cc(CNC4CCOCC4)ccc3s2)C(=O)c2ccccc21 [Example 132, (Z)-1-acetyl-2-((5-(((tetrahydro-2H-pyran-4-yl)-amino)methyl)-benzo[d]thiazol-2-yl)methylene)-indolin-3-one]
- inhibition at 1 µM [2]: 38%
- inhibition at 1 µM [3]: 42%

- IC50 [1, 6]: 1.8 µM
Structure (SMILES): CC(=O)N1/C(=C\c2ccc3cc(CNC4CCS(=O)(=O)CC4)ccc3n2)C(=O)c2ccccc21 [Example 133]
- inhibition at 10 µM [2]: 80%
- inhibition at 10 µM [3]: 99%

- inhibition at 1 µM [1]: 46.2%
- IC50 [1, 5]: 1.2 µM
Structure (SMILES): CC(=O)N1/C(=C\c2cc(-c3ccccc3-c3ccccc3)c3cc(C(N)=O)ccc3n2)C(=O)c2ccccc21 [Example 141, (Z)-4-([1,1′-biphenyl]-2-yl)-2-((1-acetyl-3-oxo-indolin-2-ylidene)-methyl)quinoline-6-carboxamide]
- inhibition at 3.2 µM [3]: 94.6%
- inhibition at 3.2 µM [4]: 91.3%

- inhibition at 1 µM [1]: 44.3%
- IC50 [1, 5]: 0.6 µM
Structure (SMILES): CC(=O)N1/C(=C\c2cc(-c3ccccc3-c3ccccc3)c3cc(CNC4CCOCC4)ccc3n2)C(=O)c2ccccc21 [Example 143, (Z)-2-((4-([1,1′-biphenyl]-2-yl)-6-(((tetrahydro-2H-pyran-4-yl)amino)-methyl)quinolin-2-yl)methylene)-1-acetylindolin-3-one]
- inhibition at 3.2 µM [3]: 97.2%
- inhibition at 3.2 µM [4]: 79.3%

Structure (SMILES): CC(=O)N1/C(=C\c2nc3ccc(C(=O)N4CCOCC4)cc3cc2-c2cnn(C)c2)C(=O)c2ccccc21 [Example 198, (Z)-1-acetyl-2-((3-(1-methyl-1H-pyrazol-4-yl)-6-(morpholine-4-carbonyl)quinolin-2-yl)methylene)-indolin-3-one]
- inhibition at 3.2 µM [2]: 68.7%
- inhibition at 3.2 µM [3]: 75.1%
- inhibition at 3.2 µM [4]: 30.4%

- IC50 [1, 5]: 28.9 µM
Structure (SMILES): CC(=O)N1/C(=C\c2nc3ccc(-c4nnn[nH]4)cc3cc2-c2cccc3ccccc23)C(=O)c2ccccc21 [Example 214, (Z)-1-acetyl-2-((3-(naphthalen-1-yl)-6-(1H-tetrazol-5-yl)quinolin-2-yl)methylene)-indolin-3-one]
- inhibition at 3.2 µM [2]: 96%
- inhibition at 3.2 µM [3]: 36.7%
- inhibition at 3.2 µM [4]: 92.2%
